In patent US7576093B2, “Method of treatment of bone-related disorders or conditions” (AstraZeneca AB, priority 2006, dated 2009):

Key:
Sprague Dawley rats [1] = assay: Trabecular bone mineral density of femur metaphysis by peripheral quantitative computed tomography after 14 days oral dosing; type: in vivo, rat; conditions: male Sprague Dawley rats, oral gavage 14 days, 3 μmol/kg twice daily or 30 μmol/kg once daily, every second or every fourth day; FIG. 5a-5c
Procedure: In a separate rat study, the effect of the compound 3-amino-6-[4-(4-methylpiperazin-1-yl)sulfonylphenyl]-N-pyridin-3-ylpyrazine-2-carboxamide on the bone mineral density (BMD) […]. The compound was formulated as a ultrapure solution in water (pH 3.5). The Male Sprague Dawley rats were dosed during 14 days by oral gavage. The study contained 4 dose groups with different dosing regimes and a vehicle control, namely 3 μmol/kg (twice daily) or 30 μmol/kg (once daily, once every second day or once every fourth day). Plasma samples were always taken 2 hrs after the oral dose was given in the morning. After 14 days, the rats were euthanized, and their right femurs were removed. The trabecular bone density of the femur metaphyses were measured utilizing peripheral quantitative computed Tomography method.

Han Wistar rats = assay: Four-week oral rat study, light microscopy of bone sections (bone formation); type: in vivo
Procedure: The compound 3-amino-6-[4-(4-methylpiperazin-1-yl)sulfonylphenyl]-N-pyridin-3-ylpyrazine-2-carboxamide was formulated as a solution in water. Male and female Han Wistar rats were dosed by oral gavage, at dosages of 10, 30 or 60 μmol/kg/day for four weeks and compared to vehicle controls. Complete necropsies were performed and the tissues preserved in 10% formalin. The femur, femorotibial joint, sternum and hind paws were decalcified, embedded in paraffin, sectioned at 5 μm thickness and stained with hematoxylin and eosin.

[2] = tested on: Parathyroid hormone (PTH); assay: Intact PTH plasma levels in rats after 7 days oral dosing (ELISA); type: in vivo, rat; conditions: male Sprague Dawley rats, 30 μmol/kg/day orally for 7 days, 3 hours after last dose, vs vehicle
Procedure: (§1) In a separate rat study, the effect of the compound 3-amino-6-[4-(4-methylpiperazin-1-yl)sulfonylphenyl]-N-pyridin-3-ylpyrazine-2-carboxamide on osteocalcin levels, used as a marker for bone formation, was studied. Parathyroid hormone (PTH) and calcitonin levels were also analysed. The compound was formulated as a solution in water. Male Sprague Dawley rats were given 30 μmol/kg/day of the compound orally for 7 days and then compared to vehicle control rats. Blood samples were taken before the first drug administration at day 1, and 3 hours after the last dose at day 7. Osteocalcin plasma levels were measured using a commercial immunoassay (ELISA kit (catalogue # BT-490, Biomedical Technologies Inc. MA, USA)). Intact PTH levels were analyzed using a commercial ELISA kit (catalogue # 60-2700, Immutopics Inc. CA, USA). The calcitonin was measured in the following way, 200 μL plasma was precipitated with 1 mL acid ethanol, mixed vigorously and centrifuged for 15 min at 1500 g. The supernatant was decanted into a new tube and evaporated with a stream of nitrogen in a Turbo Vap. After reconstitution in assay buffer, calcitonin levels were analyzed using a commercial ELISA kit (catalogue # S-1197, Peninsula. Calif., USA).

calcitonin = assay: Calcitonin plasma levels in rats after 7 days oral dosing (ELISA); type: in vivo, rat; conditions: male Sprague Dawley rats, 30 μmol/kg/day orally for 7 days, 3 hours after last dose, vs vehicle
Procedure: as §1

osteocalcin = assay: Osteocalcin plasma levels in rats after 7 days oral dosing (ELISA); type: in vivo, rat; conditions: male Sprague Dawley rats, 30 μmol/kg/day orally for 7 days, 3 hours after last dose, vs vehicle
Procedure: as §1

Sprague Dawley rats [3] = assay: Histopathology of bone in the 7-day rat study; type: in vivo; conditions: male Sprague Dawley rats, 30 μmol/kg/day orally for 7 days
GSK3β = biological target: T1, GSK3β (Mus musculus, UniProt Q9WV60); conditions: glucocorticoid-treated osteoblasts in culture, GSK3β inhibited; cited from earlier work
T1 construct: host or cells: osteoblasts in culture (endogenous protein)

[4] = rat, 60 μmol/kg for 4 weeks, vs vehicle-treated control

T1 sequence (Q9WV60 whole entry): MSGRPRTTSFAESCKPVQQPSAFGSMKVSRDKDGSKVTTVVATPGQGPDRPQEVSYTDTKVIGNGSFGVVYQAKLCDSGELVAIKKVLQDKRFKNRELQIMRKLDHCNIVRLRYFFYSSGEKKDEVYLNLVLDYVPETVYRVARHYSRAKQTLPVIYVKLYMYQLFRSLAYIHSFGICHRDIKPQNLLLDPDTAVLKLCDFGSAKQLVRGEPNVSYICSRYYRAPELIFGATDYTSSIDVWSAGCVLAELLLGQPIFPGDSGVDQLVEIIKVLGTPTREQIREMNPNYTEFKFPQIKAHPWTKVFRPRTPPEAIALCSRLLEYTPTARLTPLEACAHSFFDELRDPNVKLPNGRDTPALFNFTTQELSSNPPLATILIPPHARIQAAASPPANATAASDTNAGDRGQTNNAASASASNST

For Nc1ncc(-c2ccc(S(=O)(=O)N3CCNCC3)cc2)nc1C(=O)Nc1cccnc1 [3-amino-6-(4-piperazin-1-ylsulfonylphenyl)-N-pyridin-3-ylpyrazine-2-carboxamide], the “bone mineral density (BMD) in the trabeculae of the right femur metaphysis” value (“bone mineral density (BMD)” below) (Sprague Dawley rats [1]) was “BMD increases”.
In the case of CN1CCN(S(=O)(=O)c2ccc(-c3cnc(N)c(C(=O)Nc4cccnc4)n3)cc2)CC1 [3-amino-6-[4-(4-methylpiperazin-1-yl)sulfonylphenyl]-N-pyridin-3-ylpyrazine-2-carboxamide], the “bone mineral density (BMD)” value (Sprague Dawley rats [1]) is reported as “BMD increases”, the “bone formation (thickened trabeculae, thickened cortical bone, periosteal hyperostosis, increased number of osteoblasts) by light microscopy” value (Han Wistar rats; male and female Han Wistar rats, oral gavage 10, 30 or 60 μmol/kg/day for four weeks, all dose levels, vs vehicle) is reported as “increased bone formation” and the “formation of osteoid in femur (diaphysis), FIG. 1b” value (Han Wistar rats; [4]) is reported as “marked increase in formation of osteoid”. The “formation of osteoid in femur (diaphysis), FIG. 1b (figure legend)” value (Han Wistar rats; [4]) was “marked increase in formation of osteoid”, the PTH plasma levels [2] was “significantly increased” and the calcitonin plasma levels (calcitonin) was “significantly increased”. The Osteocalcin plasma levels (osteocalcin) was “significantly increased” and the “bone formation, histopathologically” value (Sprague Dawley rats [3]) was “increased bone formation”.
For Nc1ncc(-c2ccc(S(N)(=O)=O)cc2)nc1C(=O)Nc1cccnc1 [3-amino-N-pyridin-3-yl-6-(4-sulfamoylphenyl)pyrazine-2-carboxamide], the “bone mineral density (BMD)” value (Sprague Dawley rats [1]) was “BMD increases”.
In the case of [Cl-].[Li+] [lithium chloride], the “attenuated cell cycle and reduced c-Myc level in osteoblasts” value (GSK3β) is listed as “returned to normal”.
